Patent US20240109893A1, “PREPARATION AND APPLICATION METHOD OF HETEROCYCLIC COMPOUNDS AS KRAS INHIBITOR” (SHANGHAI KECHOW PHARMA, INC., priority 2020, published 2024)
pIC50: −log10 of the molar value.

Tested on: H358 cells
Experiment: Cell activity experiment: activity test of H358 cells (MTT, 5 days)
Format: cell-based
Conditions: 5 days incubation, absorbance 492 nm
Experimental: Example: Cell Activity Experiment
1. Cells: H358 purchased from Shanghai EK-Bioscience Biotechnology Co., Ltd.
2. Reagents: RPMI 1640 medium, Tryple, MTT (5 mg/mL), DMSO, and DPBS.
3. Instruments: an incubator at 37° C. and 5% CO2, a UTRAO microplate reader, a biosafety cabinet, a cell counting plate, and an Optec optical microscope.
4. Experimental consumables: 96-well plate Item No.: 3599, and 96-well round-bottomed dispensing plate.
Experimental Steps of Activity Test of H358 Cells:
1. Plating: Cells in the logarithmic growth phase were digested with Tryple and terminated with a fresh medium, and the cells were counted; and the cell concentration was adjusted to 55555 cells/mL with a fresh medium, wherein 90 μL was added to each well, and those on edges were filled with sterile DPBS.
2. The plate was incubated in the incubator at 37° C. and 5% CO2 for 24 h, so that the cells cover the bottom of the well by about 50%.
3. Drug preparation for experimental group: The drug was dissolved in DMSO to prepare a 20 mmol/L stock solution; the stock solution was further diluted with DMSO to 2 mmol/L, which was serially 3-fold diluted to form an […]-concentration gradient, resulting in a 200× serial compound solution; 10 μL of the serial compound solution was taken and added to 190 μLμL of RPMI1640 medium to obtain a 10× serial compound solution; and 10 μL of the 10× compound solution was taken and added to 90 μL 96-well cell culture plate, with three replicates per grade. The concentration gradient of the compound in the 96-well cell culture plate was […], 1.524158 nM, 4.572474 nM, 13.717420 nM, 41.152260 nM, 123.456800 nM, 370.370400 nM, 1111.111000 nM, 3333.333000 nM, and 10000.000000 nM, with 100 μL per well, and the final concentration of DMSO was 0.5%.
The control group contained the same volume of solvent as the experimental group and was diluted with a complete medium, with 100 μL per well.
4. Incubation was carried out for 5 days in an incubator with 5% CO2 at 37° C.
5. After 5 days, 10 μL of an MTT solution (5 mg/mL) was added to each well, and the culture was continued for 4 h.
6. The culture was terminated, and the culture solution was carefully sucked out of the well.
7. 150 μL of dimethyl sulfoxide (DMSO) was added to each of the null wells in the experimental group and the control group; and after shaking at a medium speed for 10 s, the crystal was fully dissolved, and the optical absorbance value thereof was measured at a wavelength of 492 nm.

Row | SMILES | pIC50 (Homo sapiens, NCI-H358, 120 h) | pIC50
1 | C=C(F)C(=O)N1CCN(c2nc(OCC3(CN4CCCC4)CC3)nc3c(F)c(-c4cccc5c4C4CC4C5)ncc23)C[C@@H]1CC#N (single isomer, unassigned) [Example 867] | 8.23 | –
2 | C=C(F)C(=O)N1CCN(c2nc(OCC3(CN4CCCC4)CC3)nc3c(F)c(-c4cccc5c4C4CC4C5)ncc23)C[C@@H]1CC#N (single isomer, unassigned) [Example 868] | – | 8.18
3 | C=C(F)C(=O)N1CCN(c2nc(OCC3(CN4CCCC4)CC3)nc3c(F)c(-c4cccc5c4C4CC4C5)ccc23)C[C@@H]1CC#N (single isomer, unassigned) [Example 870] | 8.14 | –
4 | C=C(F)C(=O)N1CCN(c2nc(OCC3(CN4CCCC4)CC3)nc3c(F)c(-c4cccc5c4C4CC4C5)ccc23)C[C@@H]1CC#N (single isomer, unassigned) [Example 871] | – | 8.05
5 | C=CC(=O)N1CCN(c2nc(OC[C@@H]3CCCN3C)nc3c(F)c(-c4cccc5c4CC4CC54)ccc23)C[C@@H]1CC#N (single isomer, unassigned) [Example 882] | – | 6.26
6 | C=C(F)C(=O)N1CCN(c2nc(OC[C@@H]3CCCN3C)nc3c(F)c(-c4cccc5c4CC4CC54)ccc23)C[C@@H]1CC#N (single isomer, unassigned) [Example 884] | – | 5.90
7 | C=C(F)C(=O)N1CCN(c2nc(OC[C@@H]3CCCN3C)nc3c(F)c(-c4cccc5c4CCCC5)ncc23)C[C@@H]1CC#N [Example 4, 2-((S)-4-(8-fluoro-2-(((S)-1-methylpyrrolidin-2-yl)methoxy)-7-(5,6,7,8-tetrahydronaphthalen-1-yl)pyridino[4,3-d]pyrimidin-4-yl)-1-(2-fluoroacryloyl)piperazin-2-yl)acetonitrile] | 7.15 | –
8 | C=CC(=O)N1CCN(c2nc(OC[C@@H]3C[C@@H](F)CN3C)nc3c(F)c(-c4cccc5c4CCCC5)ncc23)C[C@@H]1CC#N [Example 5, 2-((S)-1-acryloyl-4-(8-fluoro-2-(((2S,4R)-4-fluoro-1-methylpyrrolidin-2-yl)methoxy)-7-(5,6,7,8-tetrahydronaphthalen-1-yl)pyridino[4,3-d]pyrimidin-4-yl)piperazin-2-yl)acetonitrile] | 7.70 | –
9 | C=C(F)C(=O)N1CCN(c2nc(OC[C@@H]3C[C@@H](F)CN3C)nc3c(F)c(-c4cccc5c4CCCC5)ncc23)C[C@@H]1CC#N [Example 6] | 7.05 | –
10 | C=CC(=O)N1CC[C@@H]2[C@H]1CN2c1nc(OC[C@@H]2CCCN2C)nc2c(F)c(-c3cccc4c3CCCC4)ncc12 [Example 9, 1-((1R,5R)-6-(8-fluoro-2-(((S)-1-methylpyrrolidin-2-yl)methoxy)-7-(5,6,7,8-tetrahydronaphthalen-1-yl)pyridino[4,3-d]pyrimidin-4-yl)-2,6-diazabicyclo[3.2.0]hept-2-yl)prop-2-en-1-one] | 8.00 | –
11 | C=CC(=O)N1CC[C@@H]2[C@H]1CN2c1nc(OC[C@@H]2C[C@@H](F)CN2C)nc2c(F)c(-c3cccc4c3CCCC4)ncc12 [Example 11] | 7.59 | –
12 | C=C(F)C(=O)N1CC[C@@H]2[C@H]1CN2c1nc(OC[C@@H]2C[C@@H](F)CN2C)nc2c(F)c(-c3cccc4c3CCCC4)ncc12 [Example 12] | 7.10 | –
13 | C=CC(=O)N1CC[C@@H]2[C@H]1CN2c1nc(OCC23CCCN2CCC3)nc2c(F)c(-c3cccc4c3CCCC4)ncc12 [Example 13, 1-((1R,5R)-6-(8-fluoro-2-((tetrahydro-1H-pyrrolizin-7a(5H)-yl)methoxy)-7-(5,6,7,8-tetrahydronaphthalen-1-yl)pyridino[4,3-d]pyrimidin-4-yl)-2,6-diazabicyclo[3.2.0]hept-2-yl)prop-2-en-1-one] | 8.30 | –
14 | C=C(F)C(=O)N1CC[C@@H]2[C@H]1CN2c1nc(OCC23CCCN2CCC3)nc2c(F)c(-c3cccc4c3CCCC4)ncc12 [Example 14, 2-fluoro-1-((1R,5R)-6-(8-fluoro-2-((tetrahydro-1H-pyrrolizin-7a(5H)-yl)methoxy)-7-(5,6,7,8-tetrahydronaphthalen-1-yl)pyridino[4,3-d]pyrimidin-4-yl)-2,6-diazabicyclo[3.2.0]hept-2-yl)prop-2-en-1-one] | 7.52 | –
15 | C=CC(=O)N1CC[C@@H]2[C@H]1CN2c1nc(OC[C@@]23CCCN2C[C@H](F)C3)nc2c(F)c(-c3cccc4c3CCCC4)ncc12 [Example 15] | 8.52 | –
16 | C=C(F)C(=O)N1CC[C@@H]2[C@H]1CN2c1nc(OC[C@@]23CCCN2C[C@H](F)C3)nc2c(F)c(-c3cccc4c3CCCC4)ncc12 [Example 16] | 8.30 | –
17 | C=C(F)C(=O)N1CCN(c2nc(OC[C@@H]3CCCN3C)nc3c(F)c(-c4ccc(F)c5c4CCCC5)ncc23)C[C@@H]1CC#N [Example 18] | 7.00 | –
18 | C=CC(=O)N1CCN(c2nc(OC[C@@H]3C[C@@H](F)CN3C)nc3c(F)c(-c4ccc(F)c5c4CCCC5)ncc23)C[C@@H]1CC#N [Example 19] | 7.46 | –
19 | C=C(F)C(=O)N1CCN(c2nc(OC[C@@H]3C[C@@H](F)CN3C)nc3c(F)c(-c4ccc(F)c5c4CCCC5)ncc23)C[C@@H]1CC#N [Example 20] | 6.92 | –
20 | C=CC(=O)N1CCN(c2nc(OCC34CCCN3CCC4)nc3c(F)c(-c4ccc(F)c5c4CCCC5)ncc23)C[C@@H]1CC#N [Example 21] | 8.15 | –
21 | C=C(F)C(=O)N1CCN(c2nc(OCC34CCCN3CCC4)nc3c(F)c(-c4ccc(F)c5c4CCCC5)ncc23)C[C@@H]1CC#N [Example 22] | 7.70 | –
22 | C=CC(=O)N1CC[C@@H]2[C@H]1CN2c1nc(OC[C@@H]2CCCN2C)nc2c(F)c(-c3ccc(F)c4c3CCCC4)ncc12 [Example 25] | 8.00 | –

Next, values leading:

Row | pIC50 (Homo sapiens, NCI-H358, 120 h) | pIC50 | SMILES
23 | – | 6.37 | C=CC(=O)N1CCN(c2nc(OC[C@@H]3CCCN3C)nc3c(F)c(-c4cccc5c4CC4CC54)ncc23)C[C@@H]1CC#N (single isomer, unassigned) [Example 874]
24 | – | 8.02 | C=CC(=O)N1CCN(c2nc(OC[C@@]34CCCN3C[C@H](F)C4)nc3c(F)c(-c4cccc5c4CC4CC54)ncc23)C[C@@H]1CC#N (single isomer, unassigned) [Example 877]
25 | 6.63 | – | C=CC(=O)N1CCN(c2nc(OC[C@@]34CCCN3C[C@H](F)C4)nc3c(F)c(-c4cccc5c4CC4CC54)ncc23)C[C@@H]1CC#N (single isomer, unassigned) [Example 878]
26 | – | 6.36 | C=C(F)C(=O)N1CCN(c2nc(OC[C@@]34CCCN3C[C@H](F)C4)nc3c(F)c(-c4cccc5c4CC4CC54)ncc23)C[C@@H]1CC#N (single isomer, unassigned) [Example 880]
27 | – | 6.53 | C=C(F)C(=O)N1CCN(c2nc(OC[C@@]34CCCN3C[C@H](F)C4)nc3c(F)c(-c4cccc5c4CC4CC54)ccc23)C[C@@H]1CC#N (single isomer, unassigned) [Example 888]
28 | – | 7.40 | C=C(F)C(=O)N1CCN(c2nc(OC[C@@]34CCCN3C[C@H](F)C4)nc3c(OC4CC4)c(-c4cccc5c4CC4CC54)c(Cl)cc23)C[C@@H]1CC#N (single isomer, unassigned) [Example 918]
29 | – | 5.77 | C=C(F)C(=O)N1CCN(c2nc(OC[C@@]34CCCN3C[C@H](F)C4)nc3c(OC4CC4)c(-c4cccc5c4CC4CC54)c(Cl)cc23)C[C@@H]1CC#N (single isomer, unassigned) [Example 919]
30 | 10.15 | – | C=CC(=O)N1CCN(c2nc(OC[C@@]34CCCN3C[C@H](F)C4)nc3c(F)c(-c4cccc5c4CCCC5)ncc23)C[C@@H]1CC#N [Example 7, 2-((S)-1-acryloyl-4-(8-fluoro-2-(((2R,7aS)-2-fluorotetrahydro-1H-pyrrolizin-7a(5H)-yl)methoxy)-7-(5,6,7,8-tetrahydronaphthalen-1-yl)pyridino[4,3-d]pyrimidin-4-yl)piperazin-2-yl)acetonitrile]
31 | 9.19 | – | C=C(F)C(=O)N1CCN(c2nc(OC[C@@]34CCCN3C[C@H](F)C4)nc3c(F)c(-c4cccc5c4CCCC5)ncc23)C[C@@H]1CC#N [Example 8, 2-((S)-4-(8-fluoro-2-(((2R,7aS)-2-fluorotetrahydro-1H-pyrrolizin-7a(5H)-yl)methoxy)-7-(5,6,7,8-tetrahydronaphthalen-1-yl)pyridino[4,3-d]pyrimidin-4-yl)-1-(2-fluoroacryloyl)piperazin-2-yl)acetonitrile]
32 | 8.52 | – | C=CC(=O)N1CCN(c2nc(OC[C@@]34CCCN3C[C@H](F)C4)nc3c(F)c(-c4ccc(F)c5c4CCCC5)ncc23)C[C@@H]1CC#N [Example 23]
33 | 7.82 | – | C=C(F)C(=O)N1CCN(c2nc(OC[C@@]34CCCN3C[C@H](F)C4)nc3c(F)c(-c4ccc(F)c5c4CCCC5)ncc23)C[C@@H]1CC#N [Example 24]
